# Test system: DSS-induced colitis
# Test: Chronic DSS-induced colitis in mice (body weight, DAI, colon length, histology)
# Assay type: in vivo, C57BL/6 mice
# Settings: sulfasalazine (positive control) 300 mg/kg/day for seven days
# Description: 6-week-old male C57BL/6 mice weighing 18-20 g are purchased from the Laboratory Animal Services Center, the Chinese University of Hong Kong. The study protocols are approved by the committee for Care of Laboratory Animals in the School of Chinese Medicine at the Hong Kong Baptist University. The animals are divided into six groups (8-10 each group): control group (mice received drinking water and control diet), DSS-treated group (mice received 2.0% DSS in drinking and control diet), positive control group (mice received 2.0% DSS in drinking and ip, 300 mg/kg/day of sulfasalazine), Pd-Ib treatment groups will be given different dosed of Pd-Ib (mice received 2.0% DSS in drinking and i.p., 30, 60, or 120 mg/kg/day, respectively). As depicted in experiment design shown in FIG. 9, the mice are given tap water for 6 days, and then be divided into 6 groups. DSS is dissolved in distilled water at a concentration of 2% (w/v) and administered to the mice. The first day and the last day of DSS treatment are designated as day 7 and day 11, respectively. Mice are marked and checked daily for body weight. On day 12, body weight, stool consistency, and gross bleeding of each mouse are assessed, and animals showing body weight loss, diarrhea, and bleeding are selected for further analysis. All colitis mice are then interventions once daily for seven days, with eight mice in each group. The DSS model group is administered with tap water as negative control; while sulfasalazine is given as positive control (i.p., 300 mg/kg/day) and Pd-Ib treatment groups are given different doses of Pd-Ib (i.p., 30, 60, or 120 mg/kg/day, respectively). In parallel, a vehicle control group is also set up to receive drinking tap water without DSS throughout the entire experimental period. On day 19, after the mice are killed under anesthesia induced by pentobarbital sodium (i.p., 0.65 g/kg), the length of the large intestine is measured. All portions are stored at −80° C. for biochemical assays. The DAI is determined by scoring changes in the body weight, diarrhea, colon length, and bleeding. In brief, body weight, stool consistency, colon length and bleeding in the stool are monitored daily for determination of DAI. At the end of the experiment, mice are killed, and the colon is dissected from each mouse, and the length of which is measured from the ileocecal junction to the anal verge. The colons are opened longitudinally, gently washed with ice-cold PBS, fixed in 4% paraformaldehyde overnight, and embedded in paraffin. Five-micro-meter sections are stained with hematoxylin/eosin according to a standard procedure to evaluate colonic damage. Colitis is induced in all groups except the control group. Pd-Ib and sulfasalazine are administered to mice from day 6 to day 12. The change in body weight is taken as the difference between the body weight before induction of colitis and that immediately before sacrifice on day 13. The DAI score is determined by combining scores of (i) body weight loss, (ii) stool consistency, and (iii) stool bleeding. On day 13, the mice are sacrificed, and the colon lengths are measured. Data are expressed as mean±SEM, n=8 (^###p<0.001, compared with the control group; *p<0.05, **p<0.01, ***p<0.001, compared with DSS model group).
smiles,measurement,value
"O=C(O)c1cc(/N=N/c2ccc(S(=O)(=O)Nc3ccccn3)cc2)ccc1O [sulfasalazine, Sulfasalazine, reference compound]",histological manifestation of colon tissue sections,significantly decrease the damage of colon tissues
